Measurements as given in patent US9884818B2, “Sulphamoylpyrrolamide derivatives and the use thereof as medicaments for the treatment of hepatitis B” (Janssen Sciences Ireland UC, priority 2013, dated 2018).

Experiments:
HBV [1] = assay: Anti-HBV activity, HepG2.117 inducibly HBV producing cell line (Tet-off), intracellular HBV DNA by realtime PCR; format: cell-based; settings: Hepatitis B virus, HepG2.117, 72 h, HepG2.117 cells, 3 days of treatment, intracellular HBV DNA; read-out: HepG2 117 EC50
HBV [2] = assay: Anti-HBV activity, HepG2.2.15 stable transfected cell line, HBV DNA from secreted virions by realtime PCR; format: cell-based; settings: Hepatitis B virus, HepG2.2.15, 144 h, HepG2.2.15 cells, 6 days of treatment, HBV DNA from secreted virions; read-out: HepG2 2.15 EC50
[3] = Cytotoxicity in HepG2 cells, Resazurin viability assay; settings: human, HepG2 cells, HepG2 4 days CC50 (μM), incubated for 4 days, Resazurin assay

Compound | EC50 (HBV [1]) [µM] | EC50 (HBV [2]) [µM] | CC50 at 4 days [3] [µM]
Cn1cc(S(=O)(=O)NC23CC(C2)C3)cc1C(=O)Nc1cc(F)c(F)c(Cl)c1 [Compound 167, 4-(Bicyclo[1.1.1]pent-1-ylsulfamoyl)-N-(3-chloro-4,5-difluorophenyl)-1-methyl-1H-pyrrole-2-carboxamide] | 0.31 | 0.12 | > 25
Cn1cc(S(=O)(=O)NCCC(F)(F)F)cc1C(=O)Nc1cc(F)c(F)c(Cl)c1 [Compound 168, N-(3-Chloro-4,5-difluorophenyl)-1-methyl-4-[(3,3,3-trifluoropropyl)sulfamoyl]-1H-pyrrole-2-carboxamide] | 0.32 | 0.12 | > 25
C[C@@H](NS(=O)(=O)c1cn(C)c(C(=O)Nc2ccc(F)c(C#N)c2)c1F)C(F)(F)F [Compound 170, N-(3-Cyano-4-fluorophenyl)-3-fluoro-1-methyl-4-{[(1R)-2,2,2-trifluoro-1-methylethyl]sulfamoyl}-1H-pyrrole-2-carboxamide] | 0.005 | < 0.005 | > 100
CC(C)NS(=O)(=O)c1cn(C)c(C(=O)Nc2ccc(F)c(C#N)c2)c1F [Compound 171, N-(3-Cyano-4-fluorophenyl)-3-fluoro-1-methyl-4-[(1-methylethyl)sulfamoyl]-1H-pyrrole-2-carboxamide] | 0.02 | 0.02 | > 25
CC(C)NS(=O)(=O)c1cc(C(=O)Nc2ccc(F)c(Cl)c2F)n(C)c1 [Compound 172, N-(3-Chloro-2,4-difluorophenyl)-1-methyl-4-[(1-methylethyl)sulfamoyl]-1H-pyrrole-2-carboxamide] | 0.08 | 0.1 | > 25
CC(C)NS(=O)(=O)c1cc(C(=O)Nc2cccc(Cl)c2F)n(C)c1 [Compound 173, N-(3-Chloro-2-fluorophenyl)-1-methyl-4-[(1-methylethyl)sulfamoyl]-1H-pyrrole-2-carboxamide] | 0.32 | 0.21 | > 25
CC(C)NS(=O)(=O)c1cc(C(=O)Nc2ccc(F)c(Cl)c2)n(C)c1 [Compound 174, N-(3-Chloro-4-fluorophenyl)-1-methyl-4-[(1-methylethyl)sulfamoyl]-1H-pyrrole-2-carboxamide] | 0.04 | 0.08 | > 25
CC(C)NS(=O)(=O)c1cc(C(=O)Nc2ccc(F)c(C#N)c2)n(C)c1 [Compound 175, N-(3-Cyano-4-fluorophenyl)-1-methyl-4-[(1-methylethyl)sulfamoyl]-1H-pyrrole-2-carboxamide] | 0.13 | 0.07 | > 25
CC(C)NS(=O)(=O)c1cc(C(=O)Nc2cccc(C#N)c2F)n(C)c1 [Compound 176, N-(3-Cyano-2-fluorophenyl)-1-methyl-4-[(1-methylyl)sulfamoyl]-1H-pyrrole-2-carboxamide] | 0.37 | 0.5 | > 25
CC(C)NS(=O)(=O)c1cc(C(=O)Nc2cccc(C#N)c2)n(C)c1 [Compound 177, N-(3-Cyanophenyl)-1-methyl-4-[(1-methylethyl)sulfamoyl]-1H-pyrrole-2-carboxamide] | 0.26 | 0.33 | > 25
CC(C)NS(=O)(=O)c1cc(C(=O)Nc2ccc(F)c(C#N)c2F)n(C)c1 [Compound 178, N-(3-Cyano-2,4-difluorophenyl)-1-methyl-4-[(1-methylethyl)sulfamoyl]-1H-pyrrole-2-carboxamide] | 0.09 | 0.04 | > 25
Cc1c(S(=O)(=O)NC2(C)COC2)cn(C)c1C(=O)Nc1ccc(F)c(C(F)(F)F)c1 [Compound 179, N-[4-Fluoro-3-(trifluoromethyl)phenyl]-1,3-dimethyl-4-[(3-methyloxetan-3-yl)sulfamoyl]-1H-pyrrole-2-carboxamide] | 0.27 | 0.3 | > 25
C[C@@H](NS(=O)(=O)c1cn(C)c(C(=O)Nc2cccc(C#N)c2)c1F)C(F)(F)F [Compound 180, N-(3-Cyanophenyl)-3-fluoro-1-methyl-4-{[(1R)-2,2,2-trifluoro-1-methylethyl]sulfamoyl}-1H-pyrrole-2-carboxamide] | 0.02 | 0.01 | > 25
C[C@@H](NS(=O)(=O)c1cn(C)c(C(=O)Nc2ccc(F)c(C#N)c2F)c1F)C(F)(F)F [Compound 181, N-(3-Cyano-2,4-difluorophenyl)-3-fluoro-1-methyl-4-{[(1R)-2,2,2-trifluoro-1-methylethyl]sulfamoyl}-1H-pyrrole-2-carboxamide] | 0.006 | 0.008 | > 25
C[C@@H](NS(=O)(=O)c1cn(C)c(C(=O)Nc2cccc(C#N)c2F)c1F)C(F)(F)F [Compound 182, N-(3-Cyano-2-fluorophenyl)-3-fluoro-1-methyl-4-{[(1R)-2,2,2-trifluoro-1-methylethyl]sulfamoyl}-1H-pyrrole-2-carboxamide] | 0.03 | 0.01 | > 25
C[C@@H](NS(=O)(=O)c1cn(C)c(C(=O)Nc2ccc(F)c(F)c2F)c1F)C(F)(F)F [Compound 183, 3-Fluoro-1-methyl-4-{[(1R)-2,2,2-trifluoro-1-methylethyl]sulfamoyl}-N-(2,3,4-trifluorophenyl)-1H-pyrrole-2-carboxamide] | 0.01 | 0.02 | > 25
C[C@@H](NS(=O)(=O)c1cn(C)c(C(=O)Nc2ccc(F)c(Br)c2F)c1F)C(F)(F)F [Compound 184, N-(3-Bromo-2,4-difluorophenyl)-3-fluoro-1-methyl-4-{[(1R)-2,2,2-trifluoro-1-methylethyl]sulfamoyl}-1H-pyrrole-2-carboxamide] | 0.006 | 0.008 | > 25
C[C@@H](NS(=O)(=O)c1cn(C)c(C(=O)Nc2ccc(F)c(Cl)c2F)c1F)C(F)(F)F [Compound 185, N-(3-Chloro-2,4-difluorophenyl)-3-fluoro-1-methyl-4-{[(1R)-2,2,2-trifluoro-1-methylethyl]sulfamoyl}-1H-pyrrole-2-carboxamide] | 0.005 | 0.006 | > 25
CC[C@@H](C)NS(=O)(=O)c1cn(C)c(C(=O)Nc2ccc(F)c(C#N)c2)c1F [Compound 186, N-(3-Cyano-4-fluorophenyl)-3-fluoro-1-methyl-4-{[(1R)-1-methyl-propyl]sulfamoyl}-1H-pyrrole-2-carboxamide] | 0.005 | 0.008 | > 25
Cn1cc(S(=O)(=O)NC2(C)CC(F)(F)C2)c(F)c1C(=O)Nc1ccc(F)c(C#N)c1 [Compound 187, N-(3-Cyano-4-fluorophenyl)-4-[(3,3-difluoro-1-methylcyclobutyl)sulfamoyl]-3-fluoro-1-methyl-1H-pyrrole-2-carboxamide] | 0.006 | 0.008 | > 25
C[C@H](NS(=O)(=O)c1cn(C)c(C(=O)Nc2ccc(F)c(C#N)c2)c1F)C(F)(F)F [Compound 188, N-(3-Cyano-4-fluorophenyl)-3-fluoro-1-methyl-4-{[(1S)-2,2,2-trifluoro-1-methylethyl]sulfamoyl}-1H-pyrrole-2-carboxamide] | 0.03 | 0.04 | > 25
Cn1cc(S(=O)(=O)NC2(C(F)(F)F)CCC2)cc1C(=O)Nc1cc(F)c(F)c(Cl)c1 [Compound 189, N-(3-Chloro-4,5-difluorophenyl)-1-methyl-4-{[1-(trifluoromethyl)-cyclobutyl]sulfamoyl}-1H-pyrrole-2-carboxamide] | 0.007 | 0.007 | 11.3
Cn1cc(S(=O)(=O)NC(C)(C)C)cc1C(=O)Nc1ccc(F)c(C#N)c1 [Compound 190, 4-(tert-Butylsulfamoyl)-N-(3-cyano-4-fluorophenyl)-1-methyl-1H-pyrrole-2-carboxamide] | 0.1 | 0.09 | > 25
Cn1cc(S(=O)(=O)NC(C)(C)C)cc1C(=O)Nc1cccc(C#N)c1 [Compound 191, 4-(tert-Butylsulfamoyl)-N-(3-cyanophenyl)-1-methyl-1H-pyrrole-2-carboxamide] | 0.16 | 0.18 | > 25
Cn1cc(S(=O)(=O)NC(C)(C)C)cc1C(=O)Nc1cccc(C#N)c1F [Compound 192, 4-(tert-Butylsulfamoyl)-N-(3-cyano-2-fluorophenyl)-1-methyl-1H-pyrrole-2-carboxamide] | 0.19 | 0.57 | > 25
Cn1cc(S(=O)(=O)NC(C)(C)C)cc1C(=O)Nc1cccc(Cl)c1F [Compound 193, 4-(tert-Butylsulfamoyl)-N-(3-chloro-2-fluorophenyl)-1-methyl-1H-pyrrole-2-carboxamide] | 0.11 | 0.14 | > 25
Cn1cc(S(=O)(=O)NC(C)(C)C)cc1C(=O)Nc1ccc(F)c(Cl)c1F [Compound 194, 4-(tert-Butylsulfamoyl)-N-(3-chloro-2,4-difluorophenyl)-1-methyl-1H-pyrrole-2-carboxamide] | 0.05 | 0.09 | > 25
Cn1cc(S(=O)(=O)NC(C)(C)C)cc1C(=O)Nc1ccc(F)c(Cl)c1 [Compound 195, 4-(tert-Butylsulfamoyl)-N-(3-chloro-4-fluorophenyl)-1-methyl-1H-pyrrole-2-carboxamide] | 0.04 | 0.04 | > 25
C[C@H](NS(=O)(=O)c1cc(C(=O)Nc2ccc(F)c(C#N)c2F)n(C)c1)C(F)(F)F [Compound 196, N-(3-Cyano-2,4-difluorophenyl)-1-methyl-4-{[(1S)-2,2,2-trifluoro-1-methylethyl]sulfamoyl}-1H-pyrrole-2-carboxamide] | 0.08 | 0.1 | > 25
